Measured values published in the NIST ThermoML archive (doi:10.1016/j.jct.2016.08.005).

Conditions: Liquid, Vibrating tube method

c1ccsc1 [thiophene]
mass density [kg/m3]
Conditions	313.15 K	318.15 K	323.15 K	328.15 K	333.15 K	338.15 K
100 kPa	1040.68	1034.64	1028.59	1022.43	1016.27	1010.08
2000 kPa	1042.52	1036.54	1030.52	1024.49	1018.35	1012.22
5000 kPa	1045.35	1039.44	1033.54	1027.57	1021.56	1015.53
7000 kPa	1047.19	1041.36	1035.52	1029.6	1023.65	1017.69
10000 kPa	1049.91	1044.15	1038.37	1032.58	1026.72	1020.86
15000 kPa	1054.25	1048.65	1042.99	1037.33	1031.63	1025.92
20000 kPa	1058.47	1052.97	1047.45	1041.91	1036.34	1030.78
25000 kPa	1062.52	1057.12	1051.73	1046.31	1040.87	1035.41
30000 kPa	1066.43	1061.15	1055.85	1050.54	1045.21	1039.88
35000 kPa	1070.21	1065.02	1059.82	1054.61	1049.39	1044.17
40000 kPa	1073.88	1068.77	1063.67	1058.55	1053.43	1048.31
45000 kPa	1077.41	1072.41	1067.38	1062.36	1057.32	1052.28
50000 kPa	1080.86	1075.92	1070.98	1066.05	1061.09	1056.13
55000 kPa	1084.2	1079.33	1074.48	1069.6	1064.72	1059.87
60000 kPa	1087.42	1082.65	1077.86	1073.07	1068.26	1063.48
65000 kPa	1090.59	1085.87	1081.13	1076.42	1071.7	1066.99
